Test results as given in PMC10683482, “Offsetting Low-Affinity Carbohydrate Binding with Covalency to Engage Sugar-Specific Proteins for Tumor-Immune Proximity Induction” (ACS Central Science, 2023).

System: Hek-PSMA cells
Assay: Microscopy of induced antibody recruitment (opsonization)
Format: cell-based, human
Conditions: 8 μM compound with 4 μM anti-23F 24 h
Method: To test the antitumor immune function of rhamnose SO2F cARMs, GU was again incorporated as a TBD for PSMA targeting (compound 14, Figure 5A, Scheme S5). The ability to selectively induce opsonization of model prostate cancer cells via monoclonal anti-23F was first evaluated using fluorescence microscopy (Figure 5B, Figure S12). Compound 14 (8 μM) was incubated with anti-23F (4 μM) for 24 h followed by addition to PSMA expressing Hek-PSMA cells. Following a 20 min incubation, fluorescent secondary antibody was added. […] The addition of rhamnose competitor during the antibody labeling reaction again inhibited covalent antibody engagement and opsonization of target cells (Figure S12).
Figure 5 Functional analysis of PSMA-targeting SuFEx cARMs. A. Chemical structure of the functional GU cARM molecule used for PSMA targeting. B. Confocal (top) and fluorescent imaging (bottom) of Hek-PSMA cells treated with anti-23F only or anti-23F antibody pre-incubated with rhamnose-SO2F-cARM 14. C. Jurkat activation assay evaluation of 14 directly in polyclonal human IgG. Each cARM/ARM (9 μM) was incubated with polyclonal human IgG (230 μM) overnight and then added to pre-plated Hek-P cells (50,000 cells). […] Activation of jurkat cells was determined by measuring luciferase expression with a BioGlo assay kit. […] ADCP was determined via flow cytometry. […]

C[C@@H]1O[C@@H](OCc2cn(CCCNC(=O)OCCNC(=O)CCCCCNC(=O)CCCCCNC(=O)CCCCCNC(=O)NCCCC[C@H](NC(=O)N[C@@H](CCC(=O)O)C(=O)O)C(=O)O)nn2)[C@H](O)[C@H](O)[C@H]1O [compound 11]
opsonization of target cells: failed to opsonize target cells
